Results from patent US12459951B2, “Compounds that interact with RAS superfamily proteins for treatment of cancers, inflammatory diseases, rasopathies, and fibrotic disease” (SHY Therapeutics, LLC, priority 2022, dated 2025).

Columns and labels:
MAPK p38 phosphorylation = assay: MAPK p38 Activation Assay (western blot), Panc-1; format: cell-based, human; settings: at 10 μM, Panc-1 pancreatic cancer cell line; starred symbols = activation
Description: Protocol for MAPK p38 Activation Assay
This assay is referred to as the “MAPK p38 Activation Assay” throughout this application.
Cell lines: Human tumor-derived pancreatic cancer cell line Panc-1 (expressing KRas G12D mutant) was purchased from American Type Culture Collection and grown in complete DMEM-High Glucose medium, supplemented with penicillin (100 U/mL), streptomycin (100 μg/mL), and 10% heat-inactivated FBS at 37° C. in a humidified incubator with 5% CO2.
Method 1: Cells were plated at 350000 cells/well density in a 12-well plate, allowed 3 hours to adhere to the plate, then starved in the appropriate medium in the presence of 0.5% FBS overnight. The small molecules to be tested were added to the cells in the final concentration of 10 μM in the presence of 0.3% DMSO for 6 hours incubation at 37° C. For IC50 value determination, serial dilutions of compounds were added to cells under the same conditions. Next, cells were stimulated with 1.5 ng/ml EGF for 15 minutes then cells were lysed with lysis buffer containing 1% Triton X-100, EDTA, and Halt™ Protease & Phosphatase Inhibitor Cocktail (Thermo Scientific). Protein concentration was assessed by BCA protein assay (Thermo Scientific). Phosphorylation level of MAPK p38 was determined by western blot.
Method 2: Cells were plated at 350000 cells/well density in a 12-well plate in 10% FBS. The next day small molecules to be tested were added to the cells in the final concentration of 10 μM in the presence of 0.3% DMSO for 6 hours incubation at 37° C. For IC50 value determination, serial dilutions of compounds were added to cells under the same conditions. Next, cells were lysed with lysis buffer containing 1% Triton X-100, EDTA, and Halt™ Protease & Phosphatase Inhibitor Cocktail (Thermo Scientific). Protein concentration was assessed by BCA protein assay (Thermo Scientific). Phosphorylation level of MAPK p38 was determined by western blot.
Western blot protocol: Equal amounts of protein (15-50 μg) were separated by SDS-PAGE and transferred to nitrocellulose membranes (Invitrogen by Thermo Fisher Scientific). The membrane was stained with Ponceau S Stain (Boston BioProducts) to verify uniform protein loading. Membranes were blocked with 10% milk and phosphorylation levels of MAPK p38 were assessed by incubating overnight at 4° C. with the following antibody: Phospho-p38 MAPK (Thr180/Tyr182), from Cell Signaling Technology. Then the membranes were incubated with HRP-conjugated secondary antibody (Jackson Immunoresearch, West Grove, PA). Bands were incubated in Amersham ECL Prime Western Blotting Detection Reagent (GE Healthcare) and visualized using the ChemiDoc MP imaging system (Bio-Rad).

[1] = tested on: MiaPaca-2 (expressing KRAS G12C mutant); assay: Proliferation Assay (Cell Viability Assay); format: cell-based; settings: Homo sapiens, MIA PaCa-2; read-out: Proliferation in MiaPaca-2: IC50
Method in brief: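 MiaPaca-2 cells (KRAS G12C) were grown in DMEM-high glucose with 10% FBS, seeded at 2000–5000 cells/well and cultured overnight. Compounds were added at 10 μM final, or as serial dilutions for IC50, in 0.3% DMSO/10% FBS for 2–4 days at 37 °C, 5% CO2. Viability was measured with CellTiter 96 Aqueous One and % inhibition calculated.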

Compound	IC50 [1] [nM]	% inh of MAPK p38 in Panc-1 (MAPK p38 phosphorylation)
COc1cc(Nc2nc(-c3ccccn3)nn3cc(-c4ccn(C(C)C)n4)c(C)c23)ncn1 [Compound 13, 6-(1-Isopropyl-1H-pyrazol-3-yl)-N-(6-methoxypyrimidin-4-yl)-5-methyl-2-(pyridin-2-yl)pyrrolo[2,1-f][1,2,4]triazin-4-amine]	150 to 500	H* (H* ≥ 100% activation)
COc1cccc(Nc2nc(-c3ccccn3)nn3cc(-c4ccn(C(C)C)n4)c(C)c23)n1 [Compound 14, 6-(1-Isopropyl-1H-pyrazol-3-yl)-N-(6-methoxypyridin-2-yl)-5-methyl-2-(pyridin-2-yl)pyrrolo[2,1-f][1,2,4]triazin-4-amine]	> 1000	H* (H* ≥ 100% activation)
COc1cccc(-c2cn3nc(-c4nccn4C)nc(O)c3c2C)c1Cl [Compound 15, 6-(2-Chloro-3-methoxyphenyl)-5-methyl-2-(1-methyl-1H-imidazol-2-yl)pyrrolo[2,1-f][1,2,4]triazin-4-ol]	> 1000	H* (H* ≥ 100% activation)
COCCNc1nc(-c2nccn2C)nn2cc(-c3cccc(OC)c3Cl)c(C)c12 [Compound 16, 6-(2-Chloro-3-methoxyphenyl)-N-(2-methoxyethyl)-5-methyl-2-(1-methyl-1H-imidazol-2-yl)pyrrolo[2,1-f][1,2,4]triazin-4-amine]	> 1000	H* (H* ≥ 100% activation)
COc1ccnc(Nc2nc(-c3nccn3C)nn3cc(-c4ccn(CCN)n4)c(C)c23)c1 [Compound 187, 6-(1-(2-Aminoethyl)-1H-pyrazol-3-yl)-N-(4-methoxypyridin-2-yl)-5-methyl-2-(1-methyl-1H-imidazol-2-yl)pyrrolo[2,1-f][1,2,4]triazin-4-amine]	> 1000	E* (E* = 1-30% activation)
COc1ccnc(Nc2nc(-c3nccn3CCN)nn3cc(-c4ccn(C)n4)c(C)c23)c1 [Compound 188, 2-(1-(2-Aminoethyl)-1H-imidazol-2-yl)-N-(4-methoxypyridin-2-yl)-5-methyl-6-(1-methyl-1H-pyrazol-3-yl)pyrrolo[2,1-f][1,2,4]triazin-4-amine]	> 1000	E (E = 1-30% inhibition)
COCCNc1nc(-c2nccn2C)nn2cc(-c3cccnc3)c(-c3ccccc3)c12 [Compound 195, N-(2-Methoxyethyl)-2-(1-methyl-1H-imidazol-2-yl)-5-phenyl-6-(pyridin-3-yl)pyrrolo[2,1-f][1,2,4]triazin-4-amine]	> 1000	E* (E* = 1-30% activation)
COc1ccnc(Nc2nc(-c3nccn3C)nn3cc(-c4cccnc4)c(-c4ccccc4)c23)c1 [Compound 196, N-(4-Methoxypyridin-2-yl)-2-(1-methyl-1H-imidazol-2-yl)-5-phenyl-6-(pyridin-3-yl)pyrrolo[2,1-f][1,2,4]triazin-4-amine]	< 150	F (F = 31-74% inhibition)
COCCNc1nc(-c2nccn2C)nn2cc(-c3ccncc3)c(-c3ccccc3)c12 [Compound 202, N-(2-Methoxyethyl)-2-(1-methyl-1H-imidazol-2-yl)-5-phenyl-6-(pyridin-4-yl)pyrrolo[2,1-f][1,2,4]triazin-4-amine]	> 1000	E (E = 1-30% inhibition)
CO[C@H]1C[C@H](Nc2nc(-c3nccn3C)nn3cc(-c4cccc(CN)c4)c(-c4ccccc4)c23)C1 [Compound 204, 6-(3-(aminomethyl)phenyl)-N-((1r,3r)-3-methoxycyclobutyl)-2-(1-methyl-1H-imidazol-2-yl)-5-phenylpyrrolo[2,1-f][1,2,4]triazin-4-amine]	> 1000	E (E = 1-30% inhibition)
CO[C@H]1C[C@H](Nc2nc(-c3nccn3C)nn3cc(-c4cccc(OCCN)c4)c(-c4ccccc4)c23)C1 [Compound 205, 6-(3-(2-Aminoethoxy)phenyl)-N-((1r,3r)-3-methoxycyclobutyl)-2-(1-methyl-1H-imidazol-2-yl)-5-phenylpyrrolo[2,1-f][1,2,4]triazin-4-amine]	> 1000	G (G = 75-99% inhibition)
CO[C@H]1C[C@H](Nc2nc(-c3nccn3C)nn3cc(-c4ccc(CN)cc4)c(-c4ccccc4)c23)C1.Cl [Compound 206, 6-(4-(Aminomethyl)phenyl)-N-((1r,3r)-3-methoxycyclobutyl)-2-(1-methyl-1H-imidazol-2-yl)-5-phenylpyrrolo[2,1-f][1,2,4]triazin-4-amine hydrochloride salt]	> 1000	E (E = 1-30% inhibition)

Further lines, with some results ahead:

IC50 [1] [nM]	Compound	% inh of MAPK p38 in Panc-1 (MAPK p38 phosphorylation)
> 1000	CO[C@@H]1C[C@H]1Nc1nc(-c2nccn2C)nn2cc(-c3ccncc3)c(-c3ccccc3)c12 (racemic) [Compound 197, rac N-((1R,2R)-2-methoxycyclopropyl)-2-(1-methyl-1H-imidazol-2-yl)-5-phenyl-6-(pyridin-4-yl)pyrrolo[2,1-f][1,2,4]triazin-4-amine]	F (F = 31-74% inhibition)
> 1000	CO[C@H]1CC[C@@H](Nc2nc(-c3nccn3C)nn3cc(-c4ccncc4)c(-c4ccccc4)c23)C1 (racemic) [Compound 200, rac N-((1R,3S)-3-Methoxycyclopentyl)-2-(1-methyl-1H-imidazol-2-yl)-5-phenyl-6-(pyridin-4-yl)pyrrolo[2,1-f][1,2,4]triazin-4-amine]	E (E = 1-30% inhibition)
> 1000	CO[C@H]1CC[C@H](Nc2nc(-c3nccn3C)nn3cc(-c4ccncc4)c(-c4ccccc4)c23)C1 (racemic) [Compound 201, rac N-((1S,3S)-3-Methoxycyclopentyl)-2-(1-methyl-1H-imidazol-2-yl)-5-phenyl-6-(pyridin-4-yl)pyrrolo[2,1-f][1,2,4]triazin-4-amine]	E (E = 1-30% inhibition)
> 1000	CO[C@H]1C[C@@H](Nc2nc(-c3nccn3C)nn3cc(-c4cccnc4)c(-c4ccccc4)c23)C1 [Compound 191, N-((1s,3s)-3-Methoxycyclobutyl)-2-(1-methyl-1H-imidazol-2-yl)-5-phenyl-6-(pyridin-3-yl)pyrrolo[2,1-f][1,2,4]triazin-4-amine]	E* (E* = 1-30% activation)
> 1000	CO[C@H]1C[C@H](Nc2nc(-c3nccn3C)nn3cc(-c4cccnc4)c(-c4ccccc4)c23)C1 [Compound 192, N-((1r,3r)-3-Methoxycyclobutyl)-2-(1-methyl-1H-imidazol-2-yl)-5-phenyl-6-(pyridin-3-yl)pyrrolo[2,1-f][1,2,4]triazin-4-amine]	E* (E* = 1-30% activation)
> 1000	CO[C@H]1C[C@@H](Nc2nc(-c3nccn3C)nn3cc(-c4ccncc4)c(-c4ccccc4)c23)C1 [Compound 198, N-((1s,3s)-3-Methoxycyclobutyl)-2-(1-methyl-1H-imidazol-2-yl)-5-phenyl-6-(pyridin-4-yl)pyrrolo[2,1-f][1,2,4]triazin-4-amine]	E (E = 1-30% inhibition)
> 1000	CO[C@H]1C[C@H](Nc2nc(-c3nccn3C)nn3cc(-c4ccncc4)c(-c4ccccc4)c23)C1 [Compound 199, N-((1r,3r)-3-Methoxycyclobutyl)-2-(1-methyl-1H-imidazol-2-yl)-5-phenyl-6-(pyridin-4-yl)pyrrolo[2,1-f][1,2,4]triazin-4-amine]	E (E = 1-30% inhibition)
510 to 1000	CO[C@H]1C[C@H](Nc2nc(-c3nccn3C)nn3cc(-c4ccccc4)c(-c4ccccc4)c23)C1 [Compound 203, N-((1r,3r)-3-Methoxycyclobutyl)-2-(1-methyl-1H-imidazol-2-yl)-5,6-diphenylpyrrolo[2,1-f][1,2,4]triazin-4-amine]	G (G = 75-99% inhibition)
